Patent US20230040770A1, “HETEROCYCLIC COMPOUND AND USE THEREOF” (TAKEDA PHARMACEUTICAL COMPANY LIMITED, priority 2019, published 2023)

Target: T1, human orexin type 2 receptor (Homo sapiens, UniProt O43614)
T1 construct: expressed in transfected cells
T1 sequence (O43614 1-444): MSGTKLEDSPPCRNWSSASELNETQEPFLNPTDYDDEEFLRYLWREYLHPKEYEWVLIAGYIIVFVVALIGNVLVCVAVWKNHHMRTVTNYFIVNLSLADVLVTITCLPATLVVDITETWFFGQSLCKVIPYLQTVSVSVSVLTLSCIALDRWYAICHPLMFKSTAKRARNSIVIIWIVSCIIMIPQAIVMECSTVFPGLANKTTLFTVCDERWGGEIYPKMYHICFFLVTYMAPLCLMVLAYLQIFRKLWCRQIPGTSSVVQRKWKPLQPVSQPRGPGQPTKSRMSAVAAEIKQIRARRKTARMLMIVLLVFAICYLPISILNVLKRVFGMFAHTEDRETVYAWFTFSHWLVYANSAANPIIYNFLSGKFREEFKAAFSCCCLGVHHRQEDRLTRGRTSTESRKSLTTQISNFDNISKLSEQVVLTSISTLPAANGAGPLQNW
Experiment: Measurement of orexin type 2 receptor agonist activity (calcium indicator fluorescence, CHO cells forcibly expressing human OX2 receptor)
Type: cell-based
Details: compound at 3 μM; 0% = DMSO, 100% = orexin A (human) 10 nM
Description: To obtain a cell clone stably expressing human orexin type 2 receptor, human orexin type 2 receptor cDNA was inserted into pcDNA3.1(+) plasmid vector (Invitrogen), and a plasmid DNA for expression of human orexin type 2 receptor (pcDNA3.1(+)/hOX2R) was cloned. The plasmid DNA was introduced into CHO-dhfr cell by an electroporation method, and human orexin type 2 receptor expressing clone cells were obtained by limiting dilution method by using G418 drug resistance as a selection marker.
CHO cells forcibly expressing human OX2 receptor were seeded in each well of 384 well black transparent bottom plate (BD Falcon) at 7,500 cells/well, and cultured for one day in a 5% CO2 incubator at 37° C. After removal of the medium in the cell plate, assay buffer A containing a calcium indicator (HBSS (Thermo Fisher Scientific), 20 mM HEPES (Thermo Fisher Scientific), 0.1% BSA (Sigma-Aldrich), 2.5 μg/mL Fluo-4 AM (DOJINDO Chemical), 0.08% Pluronic F127 (DOJINDO Chemical), 1.25 mM probenecid (DOJINDO Chemical)) was added at 30 μL/well. The plate was stood for 30 min in a 5% CO2 incubator at 37° C., and further stood at room temperature for 30 min. A test compound prepared by diluting with assay buffer B (HBSS, 20 mM HEPES, 0.1% BSA) was added at 10 μL/well, and the fluorescence value was measured by FDSSμCELL (Hamamatsu Photonics K.K.) every one sec for 1 min, and thereafter every two sec for […]. The activity (%) of the test compound was calculated assuming that variation in the fluorescence value when DMSO was added instead of the test compound was 0%, and variation in the fluorescence value when orexin A (human) (PEPTIDE INSTITUTE, INC.) was added at the final concentration of 10 nM was 100%.

Structure (SMILES) | OX2R agonist activity (3 μM, %) [%]
CC(C)C(=O)N1CC(F)(F)[C@H](NS(C)(=O)=O)[C@@H]1Cc1cccc(-c2cccc(F)c2)c1F [Example 98, N-[(2S,3R)-2-[(2,3′-difluoro[1,1′-biphenyl]-3-yl)methyl]-4,4-difluoro-1-(2-methylpropanoyl)pyrrolidin-3-yl]methanesulfonamide] | 91
CCS(=O)(=O)N[C@@H]1[C@H](Cc2cccc(-c3ccccc3)c2F)N(C(=O)[C@H]2CCCO2)CC1(F)F [Example 105, N-{(2S,3R)-4,4-difluoro-2-[(2-fluoro[1,1′-biphenyl]-3-yl)methyl]-1-[(2R)-oxolane-2-carbonyl]pyrrolidin-3-yl}ethanesulfonamide] | 99
CCS(=O)(=O)N[C@@H]1[C@H](Cc2cccc(-c3ccccc3)c2F)N(C(=O)C(C)C)CC1(F)F [Example 106, N-[(2S,3R)-4,4-difluoro-2-[(2-fluoro[1,1′-biphenyl]-3-yl)methyl]-1-(2-methylpropanoyl)pyrrolidin-3-yl]ethanesulfonamide] | 97
CCS(=O)(=O)N[C@@H]1[C@H](Cc2cccc(-c3cc(F)cc(F)c3)c2)N(C(=O)C(C)C)CC1(F)F [Example 116, N-[(2S,3R)-2-[(3′,5′-difluoro[1,1′-biphenyl]-3-yl)methyl]-4,4-difluoro-1-(2-methylpropanoyl)pyrrolidin-3-yl]ethanesulfonamide] | 86
CS(=O)(=O)N[C@@H]1[C@H](Cc2cccc(-c3cccc(F)c3F)c2F)N(C(=O)[C@H]2CCO2)CC1(F)F [Example 121, N-{(2S,3R)-4,4-difluoro-1-((2R)-oxetane-2-carbonyl)-2-[(2,2′,3′-trifluoro[1,1′-biphenyl]-3-yl)methyl]pyrrolidin-3-yl}methanesulfonamide] | 94
CS(=O)(=O)N[C@@H]1[C@H](Cc2cccc(-c3cc(F)ccc3F)c2F)N(C(=O)[C@H]2CCO2)CC1(F)F [Example 122, N-{(2S,3R)-4,4-difluoro-1-((2R)-oxetane-2-carbonyl)-2-[(2,2′,5′-trifluoro[1,1′-biphenyl-]-3-yl)methyl]pyrrolidin-3-yl}methanesulfonamide] | 89
O=C(C1CCO1)N1CC(F)(F)[C@H](NS(=O)(=O)C2CC2)[C@@H]1Cc1cccc(-c2ccccc2)c1F (stereo partly drawn) [Example 124, N-[(2S,3R)-4,4-difluoro-2-[(2-fluoro[1,1′-biphenyl]-3-yl)methyl]-1-(oxetane-2-carbonyl)pyrrolidin-3-yl]cyclopropanesulfonamide] | 89
O=C(C1CCO1)N1CC(F)(F)[C@H](NS(=O)(=O)C2CC2)[C@@H]1Cc1cccc(-c2cccc(F)c2)c1F (stereo partly drawn) [Example 129, N-[(2S,3R)-2-[(2,3′-difluoro[1,1′-biphenyl]-3-yl)methyl]-4,4-difluoro-1-(oxetane-2-carbonyl)pyrrolidin-3-yl]cyclopropanesulfonamide] | 92
CC(C)C(=O)N1CC(F)(F)[C@H](NS(C)(=O)=O)[C@@H]1Cc1cccc(-c2cccc(F)c2F)c1 [Example 131, N-[(2S,3R)-2-[(2′,3′-difluoro[1,1′-biphenyl]-3-yl)methyl]-4,4-difluoro-1-(2-methylpropanoyl)pyrrolidin-3-yl]methanesulfonamide] | 94
CS(=O)(=O)N[C@@H]1[C@H](Cc2cccc(-c3cccc(F)c3F)c2F)N(C(=O)[C@@H]2CCO2)CC1(F)F [Example 133, N-{(2S,3R)-4,4-difluoro-1-((2S)-oxetane-2-carbonyl)-2-[(2,2′,3′-trifluoro[1,1′-biphenyl]-3-yl)methyl]pyrrolidin-3-yl}methanesulfonamide] | 96
CN(C)C(=O)N1CC(F)(F)[C@H](NS(=O)(=O)N(C)C)[C@@H]1Cc1cccc(-c2ccccc2)c1F [Example 138, (2S,3R)-3-[(dimethylsulfamoyl)amino]-4,4-difluoro-2-[(2-fluoro[1,1′-biphenyl]-3-yl)methyl]-N,N-dimethylpyrrolidine-1-carboxamide] | 97
CN(C)S(=O)(=O)N[C@@H]1[C@H](Cc2cccc(-c3ccccc3)c2F)N(C(=O)N2CCC2)CC1(F)F [Example 139, N′-{(2S,3R)-1-(azetidine-1-carbonyl)-4,4-difluoro-2-[(2-fluoro[1,1′-biphenyl]-3-yl)methyl]pyrrolidin-3-yl}-N,N-dimethylsulfuric diamine] | 93
CN(C)S(=O)(=O)N[C@@H]1[C@H](Cc2cccc(-c3ccccc3)c2F)N(C(=O)C2(O)CCC2)CC1(F)F [Example 145, N′-[(2S,3R)-4,4-difluoro-2-[(2-fluoro[1,1′-biphenyl]-3-yl)methyl]-1-(1-hydroxycyclobutane-1-carbonyl)pyrrolidin-3-yl]-N,N-dimethylsulfuric diamide] | 99
CCS(=O)(=O)N[C@@H]1[C@H](Cc2cccc(-c3cc(F)ccc3F)c2F)N(C(=O)C(C)C)CC1(F)F [Example 147, N-{(2S,3R)-4,4-difluoro-1-(2-methylpropanoyl)-2-[(2,2′,5′-trifluoro[1,1′-biphenyl]-3-yl)methyl]pyrrolidin-3-yl}ethanesulfonamide] | 91
O=C(C1CCO1)N1CC(F)(F)[C@H](NS(=O)(=O)C2CC2)[C@@H]1Cc1cccc(-c2cc(F)cc(F)c2)c1F (stereo partly drawn) [Example 162, N-{(2S,3R)-4,4-difluoro-1-(oxetane-2-carbonyl)-2-[(2,3′,5′-trifluoro[1,1′-biphenyl]-3-yl)methyl]pyrrolidin-3-yl}cyclopropanesulfonamide] | 92
CC(C)C(=O)N1CC(F)(F)[C@H](NS(=O)(=O)C2CC2)[C@@H]1Cc1cccc(-c2cccc(F)c2)c1F [Example 163, N-[(2S,3R)-2-[(2,3′-difluoro[1,1′-biphenyl]-3-yl)methyl]-4,4-difluoro-1-(2-methylpropanoyl)pyrrolidin-3-yl]cyclopropanesulfonamide] | 105
CC(C)C(=O)N1CC(F)(F)[C@H](NS(=O)(=O)C2CC2)[C@@H]1Cc1cccc(-c2cc(F)cc(F)c2)c1F [Example 166] | 98
CC(C)C(=O)N1CC(F)(F)[C@H](NS(=O)(=O)C2CC2)[C@@H]1Cc1cccc(-c2ccccc2)c1F [Example 171, N-[(2S,3R)-4,4-difluoro-2-[(2-fluoro[1,1′-biphenyl]-3-yl)methyl]-1-(2-methylpropanoyl)pyrrolidin-3-yl]cyclopropanesulfonamide] | 99
CCS(=O)(=O)N[C@@H]1[C@H](Cc2cccc(-c3cccc(F)c3F)c2)N(C(=O)C2CCO2)CC1(F)F (stereo partly drawn) [Example 174, N -[(2S,3R)-2-[(2′,3′-difluoro[1,1′-biphenyl]-3-yl)methyl]-4,4-difluoro-1-(oxetane-2-carbonyl)pyrrolidin-3-yl]ethanesulfonamide] | 90
CCS(=O)(=O)N[C@@H]1[C@H](Cc2cccc(-c3cccc(F)c3F)c2)N(C(=O)C2CCO2)CC1(F)F (stereo partly drawn) [Example 175, N-[(2S,3R)-2-[(2′,3′-difluoro[1,1′-biphenyl]-3-yl)methyl]-4,4-difluoro-1-(oxetane-2-carbonyl)pyrrolidin-3-yl]ethanesulfonamide] | 95
CCS(=O)(=O)N[C@@H]1[C@H](Cc2cccc(-c3cccc(F)c3)c2F)N(C(=O)C2CC2)CC1(F)F [Example 202, N-{(2S,3R)-1-(cyclopropanecarbonyl)-2-[(2,3′-difluoro[1,1′-biphenyl]-3-yl)methyl]-4,4-difluoropyrrolidin-3-yl}ethanesulfonamide] | 94
CCS(=O)(=O)N[C@@H]1[C@H](Cc2cccc(-c3cccc(F)c3F)c2F)N(C(=O)C2CC2)CC1(F)F [Example 204, N-{(2S,3R)-1-(cyclopropanecarbonyl)-4,4-difluoro-2-[(2,2′,3′-trifluoro[1,1′-biphenyl]-3-yl)methyl]pyrrolidin-3-yl}ethanesulfonamide] | 89
